# Assay results reported in patent US7153866B1 (The United States of America as represented by the …, priority 1997, dated 2006).
# Legend:
# C3H female mice = experiment: Lifetime incidence of cancer in normal C3H female mice given Tempol in drinking water; assay type: in vivo; conditions: FIG. 2
# Source text: Female C3H mice were supplied through the Frederick Cancer Research Center-Animal Production, Frederick, Md. […] All groups were allowed food and water ad libitum. All groups were followed for their entire life span. Animals were sacrificed at the first sign of a visible tumor nodule, gross enlargement of spleen, or marked difficulty in breathing. The presence of tumor was confirmed histologically.
# neoplastic cell lines = conditions: in vitro; Monti et al., PAACR 1995 and 1997; cited from earlier work
compound,measurement,setting,value
"CC1(C)CC(O)CC(C)(C)N1[O] [Tempol, 4-hydroxy-2,2,6,6-tetramethylpiperidine-1-oxyl]",incidence of cancer (total number of tumors/group) compared to controls,C3H female mice; Tempol 58 mM in drinking water for entire life span,four-fold reduction
same,incidence of cancer (total number of tumors/group) compared to both control groups,C3H female mice; Tempol 58 mM in drinking water for one year,dramatically reduced the incidence of cancer
same,cytotoxicity against neoplastic cell lines,neoplastic cell lines,cytotoxic
